According to US20260297092A1, “PYRAZOLOPYRIMIDINE DERIVATIVES AS INHIBITORS OF NLRP3” (Takeda Pharmaceutical Company Limited, priority 2023, published 2026):

How the values were obtained:
[1] = test system: NLRP3 inflammasome (IL-1β production in THP-1 cells); experiment: IL-1β TR-FRET Assay (percentage of inhibition at 300 nM, 6 μM or 10 μM); format: cell-based, human; settings: Homo sapiens, LPS priming, ATP activation; for inhibition at 0.3 µM: THP-1, 300 nM, read-out: IL-1β inhibitory rate at 300 nM (%); for inhibition at 10 µM: THP-1, 10 μM, read-out: IL-1β inhibitory rate at 10 μM (%)
In short: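 THP-1 cells were differentiated with 25 ng/mL IFN-γ for 24 h, primed with 50 ng/mL LPS in serum-free medium for 24 h, then given compound for 30 min before 20 mM ATP for 2 h. Supernatant IL-1β was measured by HTRF after 16-24 h at room temperature. Inhibition was normalized between DMSO (high) and 3 μM MCC-950 (low).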

[2] = test system: TNF-α (NF-κB pathway, THP-1 cells); experiment: TNF-α Assay (IC50); format: cell-based, human; settings: Homo sapiens, 600 ng/mL LPS, 3 hours
In short: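 THP-1 cells differentiated to macrophages with 25 ng/mL IFN for 24 h, plated 40,000/well in serum-free medium, preincubated with compounds 30 min at 37 °C, then stimulated with 600 ng/mL LPS for 3 h. Supernatant TNF-α measured by ELISA; IC50 from four-parameter logistic fit, 100% inhibition defined by TPCA-1.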

| IC50 [2] | SMILES | inhibition at 0.3 µM [1] | inhibition at 10 µM [1] |
| --- | --- | --- | --- |
| > 30 µM | CCOc1nc2nn(-c3ccc(C)cc3OCC(F)F)cc2c(=O)[nH]1 [Example 98, 2-[2-(2,2-difluoroethoxy)-4-methylphenyl]-6-ethoxy-2,5-dihydro-4H-pyrazolo[3,4-d]pyrimidin-4-one] | 44% | – |
| > 30 µM | Cc1ccc(-n2cc3c(=O)[nH]c(Oc4ccccc4)nc3n2)c(C)c1 [Example 100, 2-(2,4-dimethylphenyl)-6-phenoxy-2,5-dihydro-4H-pyrazolo[3,4-d]pyrimidin-4-one] | – | 100% |
| > 30 µM | CCOc1nc2nn(-c3c(C)ccc(C)c3F)cc2c(=O)[nH]1 [Example 101, 6-ethoxy-2-(2-fluoro-3,6-dimethylphenyl)-2,5-dihydro-4H-pyrazolo[3,4-d]pyrimidin-4-one] | – | 95% |
| > 30 µM | Cc1cc(Cl)ccc1-n1cc2c(=O)[nH]c(C3CCCN(C)C3)nc2n1 (stereo not drawn) [Example 102, 2-(4-chloro-2-methylphenyl)-6-(1-methylpiperidin-3-yl)-2,5-dihydro-4H-pyrazolo[3,4-d]pyrimidin-4-one] | – | 97% |
| > 30 µM | CCOc1nc2nn(-c3c(F)cc(C4CC4)cc3F)cc2c(=O)[nH]1 [Example 103, 2-(4-cyclopropyl-2,6-difluorophenyl)-6-ethoxy-2,5-dihydro-4H-pyrazolo[3,4-d]pyrimidin-4-one] | 97% | – |
| > 30 µM | CCOc1nc2nn(-c3c(F)cc(OC(F)(F)F)cc3Br)cc2c(=O)[nH]1 [Example 104, 2-[2-bromo-6-fluoro-4-(trifluoromethoxy)phenyl]-6-ethoxy-2,5-dihydro-4H-pyrazolo[3,4-d]pyrimidin-4-one] | 99% | – |
| > 30 µM | CCOc1nc2nn(-c3c(F)cc(C)cc3C3CC3)cc2c(=O)[nH]1 [Example 105, 2-(2-cyclopropyl-6-fluoro-4-methylphenyl)-6-ethoxy-2,5-dihydro-4H-pyrazolo[3,4-d]pyrimidin-4-one] | 99% | – |
| > 30 µM | CCOc1nc2nn(-c3c(C)cc(C)cc3C)cc2c(=O)[nH]1 [Example 106, 6-ethoxy-2-(2,4,6-trimethylphenyl)-2,5-dihydro-4H-pyrazolo[3,4-d]pyrimidin-4-one] | 97% | – |
| > 30 µM | CCOc1nc2nn(-c3c(F)cc(C4CC4)cc3OC(F)F)cc2c(=O)[nH]1 [Example 107, 2-[4-cyclopropyl-2-(difluoromethoxy)-6-fluorophenyl]-6-ethoxy-2,5-dihydro-4H-pyrazolo[3,4-d]pyrimidin-4-one] | 99% | – |
| > 30 µM | CCOc1nc2nn(-c3c(F)cc(C)cc3OC(F)F)cc2c(=O)[nH]1 [Example 108] | 98% | – |
| > 30 µM | CCOc1nc2nn(-c3c(C)cc(OC(F)F)cc3F)cc2c(=O)[nH]1 [Example 109] | 99% | – |
| > 30 µM | CCOc1nc2nn(-c3c(F)cc(C4CC4)cc3C(F)F)cc2c(=O)[nH]1 [Example 110, 2-[4-cyclopropyl-2-(difluoromethyl)-6-fluorophenyl]-6-ethoxy-2,5-dihydro-4H-pyrazolo[3,4-d]pyrimidin-4-one] | 99% | – |
| > 30 µM | CCOc1nc2nn(-c3ccc(C4CC4)cc3F)c(C)c2c(=O)[nH]1 [Example 111, 2-(4-cyclopropyl-2-fluorophenyl)-6-ethoxy-3-methyl-2,5-dihydro-4H-pyrazolo[3,4-d]pyrimidin-4-one] | 95% | – |
| > 30 µM | CCOc1nc2nn(-c3ccc(C)cc3F)cc2c(=O)[nH]1 [Example 113, 6-ethoxy-2-(2-fluoro-4-methylphenyl)-2,5-dihydro-4H-pyrazolo[3,4-d]pyrimidin-4-one] | 67% | – |
| > 30 µM | CCOc1nc2nn(-c3c(F)cc(C4CC4)cc3Br)cc2c(=O)[nH]1 [Example 114, 2-(2-bromo-4-cyclopropyl-6-fluorophenyl)-6-ethoxy-2,5-dihydro-4H-pyrazolo[3,4-d]pyrimidin-4-one] | 98% | – |

The remaining lines, values behind:

| SMILES | IC50 [2] | inhibition at 0.3 µM [1] | inhibition at 10 µM [1] |
| --- | --- | --- | --- |
| Cc1cc(O)c(-n2cc3c(=O)[nH]c(-c4ccncn4)nc3n2)c(C)c1C [Example 77, 2-(6-hydroxy-2,3,4-trimethylphenyl)-6-(pyrimidin-4-yl)-2,5-dihydro-4H-pyrazolo[3,4-d]pyrimidin-4-one] | > 30 µM | 99% | – |
| CCOc1nc2nn(-c3c(F)cc(C)cc3C3CC3(F)F)cc2c(=O)[nH]1 (stereo not drawn) [Example 79, 2-[2-(2,2-difluorocyclopropyl)-6-fluoro-4-methylphenyl]-6-ethoxy-2,5-dihydro-4H-pyrazolo[3,4-d]pyrimidin-4-one] | > 30 µM | 95% | – |
| Cc1cc(C)c(-n2cc3c(=O)[nH]c(C4CCCCO4)nc3n2)c(O)c1C (stereo not drawn) [Example 81, 2-(2-hydroxy-3,4,6-trimethylphenyl)-6-(oxan-2-yl)-2,5-dihydro-4H-pyrazolo[3,4-d]pyrimidin-4-one] | > 30 µM | 97% | – |
| CCOc1nc2nn(-c3ccc(C)cc3C)cc2c(=O)[nH]1 [Example 82, 2-(2,4-dimethylphenyl)-6-ethoxy-2,5-dihydro-4H-pyrazolo[3,4-d]pyrimidin-4-one] | > 30 µM | 98% | – |
| CCOc1nc2nn(-c3ccc(C)cc3OC(F)F)cc2c(=O)[nH]1 [Example 83, 2-[2-(difluoromethoxy)-4-methylphenyl]-6-ethoxy-2,5-dihydro-4H-pyrazolo[3,4-d]pyrimidin-4-one] | > 30 µM | 99% | – |
| Cc1ccc(-n2cc3c(=O)[nH]c(-c4ccncn4)nc3n2)c(C)c1 [Example 84, 2-(2,4-dimethylphenyl)-6-(pyrimidin-4-yl)-2,5-dihydro-4H-pyrazolo[3,4-d]pyrimidin-4-one] | > 30 µM | 97% | – |
| COC(C)(C)c1nc2nn(-c3c(C)cc(C)cc3O)cc2c(=O)[nH]1 [Example 85, 2-(2-hydroxy-4,6-dimethylphenyl)-6-(2-methoxypropan-2-yl)-2,5-dihydro-4H-pyrazolo[3,4-d]pyrimidin-4-one] | > 30 µM | 92% | – |
| Cc1ccc(-n2cc3c(=O)[nH]c(OCC(C)(F)F)nc3n2)c(O)c1 [Example 86, 6-(2,2-difluoropropoxy)-2-(2-hydroxy-4-methylphenyl)-2,5-dihydro-4H-pyrazolo[3,4-d]pyrimidin-4-one] | > 30 µM | 85% | – |
| Cc1ccc(-n2cc3c(=O)[nH]c(OC4CCC4)nc3n2)c(C)c1 [Example 87, 6-(cyclobutyloxy)-2-(2,4-dimethylphenyl)-2,5-dihydro-4H-pyrazolo[3,4-d]pyrimidin-4-one] | > 30 µM | 97% | – |
| Cc1cc(C)c(-n2cc3c(=O)[nH]c(C4CN(C)CCO4)nc3n2)c(O)c1 (stereo not drawn) [Example 88, 2-(2-hydroxy-4,6-dimethylphenyl)-6-(4-methylmorpholin-2-yl)-2,5-dihydro-4H-pyrazolo[3,4-d]pyrimidin-4-one] | > 30 µM | 86% | – |
| Cc1cc(C)c(-n2cc3c(=O)[nH]c(C4(C)CCCCO4)nc3n2)c(O)c1 (stereo not drawn) [Example 90, 2-(2-hydroxy-4,6-dimethylphenyl)-6-(2-methyloxan-2-yl)-2,5-dihydro-4H-pyrazolo[3,4-d]pyrimidin-4-one] | > 30 µM | 85% | – |
| Cc1ccc(-n2nc3nc(OCC(C)(F)F)[nH]c(=O)c3c2C)c(O)c1 [Example 91, 6-(2,2-difluoropropoxy)-2-(2-hydroxy-4-methylphenyl)-3-methyl-2,5-dihydro-4H-pyrazolo[3,4-d]pyrimidin-4-one] | > 30 µM | 76% | – |
| CCOc1nc2nn(-c3c(F)cc(C)c(F)c3C)cc2c(=O)[nH]1 [Example 92, 2-(3,6-difluoro-2,4-dimethylphenyl)-6-ethoxy-2,5-dihydro-4H-pyrazolo[3,4-d]pyrimidin-4-one] | > 30 µM | 82% | – |
| CCOc1nc2nn(-c3c(F)cc(C)cc3OC)cc2c(=O)[nH]1 [Example 93, 6-ethoxy-2-(2-fluoro-6-methoxy-4-methylphenyl)-2,5-dihydro-4H-pyrazolo[3,4-d]pyrimidin-4-one] | > 30 µM | 80% | – |
| Cc1cc(C)c(-n2cc3c(=O)[nH]c(C(F)F)nc3n2)c(O)c1 [Example 94, 6-(difluoromethyl)-2-(2-hydroxy-4,6-dimethylphenyl)-2,5-dihydro-4H-pyrazolo[3,4-d]pyrimidin-4-one] | > 30 µM | 83% | – |
| CCOc1nc2nn(-c3c(OCC)cc(C(F)(F)F)cc3C(F)F)cc2c(=O)[nH]1 [Example 95, 2-[2-(difluoromethyl)-6-ethoxy-4-(trifluoromethyl)phenyl]-6-ethoxy-2,5-dihydro-4H-pyrazolo[3,4-d]pyrimidin-4-one] | > 30 µM | 72% | – |
| CCOc1nc2nn(-c3c(C)cc(C)c(F)c3F)cc2c(=O)[nH]1 [Example 96, 2-(2,3-difluoro-4,6-dimethylphenyl)-6-ethoxy-2,5-dihydro-4H-pyrazolo[3,4-d]pyrimidin-4-one] | > 30 µM | 55% | – |
| CCOc1nc2nn(-c3c(Br)cc(C)c(F)c3F)cc2c(=O)[nH]1 [Example 97, 2-(6-bromo-2,3-difluoro-4-methylphenyl)-6-ethoxy-2,5-dihydro-4H-pyrazolo[3,4-d]pyrimidin-4-one] | > 30 µM | 66% | – |
